Results: the supplement of paper PMC10307832

Tests used:
Assay in all cases: relative viability (nuclei count vs DMSO), 5 days (fraction); higher = more cells survive
GW-2580 + OSI-027 = compound: COC1=CC=C(C=C1)COC2=C(C=C(C=C2)CC3=CN=C(N=C3N)N)OC [GW-2580] + COc1cccc2cc(-c3nc([C@H]4CC[C@H](C(=O)O)CC4)n4ncnc(N)c34)[nH]c12 [OSI-027] (partner 0.5 µM)
Summary of the method: (§1)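 Lung cancer cell lines in 1536-well plates got either a single drug or a fixed anchor-drug dose together with five library-drug doses (not always all listed) in √10 steps, by pin tool, on the day after seeding. Nuclei were counted after 5 days, and relative viability is the treated-to-vehicle ratio of nuclei counts. Values are medians of duplicate plates.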

GW-2580 + Decitabine = compound: COC1=CC=C(C=C1)COC2=C(C=C(C=C2)CC3=CN=C(N=C3N)N)OC [GW-2580] + Nc1ncn([C@H]2C[C@H](O)[C@@H](CO)O2)c(=O)n1 [Decitabine] (partner 2 µM)
Summary of the method: as §1

Fedratinib + OSI-027 = compound: Cc1cnc(Nc2ccc(OCCN3CCCC3)cc2)nc1Nc1cccc(S(=O)(=O)NC(C)(C)C)c1 [Fedratinib] + COc1cccc2cc(-c3nc([C@H]4CC[C@H](C(=O)O)CC4)n4ncnc(N)c34)[nH]c12 [OSI-027] (partner 0.5 µM)
Summary of the method: as §1

Fedratinib + Crizotinib = compound: Cc1cnc(Nc2ccc(OCCN3CCCC3)cc2)nc1Nc1cccc(S(=O)(=O)NC(C)(C)C)c1 [Fedratinib] + C[C@@H](Oc1cc(-c2cnn(C3CCNCC3)c2)cnc1N)c1c(Cl)ccc(F)c1Cl [Crizotinib] (partner 1 µM)
Summary of the method: as §1

Fedratinib + Pemetrexed = compound: Cc1cnc(Nc2ccc(OCCN3CCCC3)cc2)nc1Nc1cccc(S(=O)(=O)NC(C)(C)C)c1 [Fedratinib] + Nc1nc2[nH]cc(CCc3ccc(C(=O)N[C@@H](CCC(=O)O)C(=O)O)cc3)c2c(=O)[nH]1 [Pemetrexed] (partner 0.2 µM)
Summary of the method: as §1

Fedratinib + Olaparib = compound: Cc1cnc(Nc2ccc(OCCN3CCCC3)cc2)nc1Nc1cccc(S(=O)(=O)NC(C)(C)C)c1 [Fedratinib] + O=C(c1cc(Cc2n[nH]c(=O)c3ccccc23)ccc1F)N1CCN(C(=O)C2CC2)CC1 [Olaparib] (partner 8 µM)
Summary of the method: as §1

| Cell Line | relative viability (GW-2580 + OSI-027; first compound 0.08 µM) | relative viability (GW-2580 + OSI-027; first compound 0.8 µM) | relative viability (GW-2580 + OSI-027; first compound 2.53 µM) | relative viability (GW-2580 + OSI-027; first compound 8 µM) | relative viability (GW-2580 + Decitabine; first compound 0.08 µM) | relative viability (GW-2580 + Decitabine; first compound 0.8 µM) | relative viability (GW-2580 + Decitabine; first compound 2.53 µM) | relative viability (GW-2580 + Decitabine; first compound 8 µM) | relative viability (Fedratinib + OSI-027; first compound 0.1 µM) | relative viability (Fedratinib + OSI-027; first compound 0.3162 µM) | relative viability (Fedratinib + OSI-027; first compound 1 µM) | relative viability (Fedratinib + Crizotinib; first compound 0.1 µM) | relative viability (Fedratinib + Crizotinib; first compound 0.3162 µM) | relative viability (Fedratinib + Crizotinib; first compound 1 µM) | relative viability (Fedratinib + Pemetrexed; first compound 0.1 µM) | relative viability (Fedratinib + Pemetrexed; first compound 0.3162 µM) | relative viability (Fedratinib + Pemetrexed; first compound 1 µM) | relative viability (Fedratinib + Olaparib; first compound 0.1 µM) | relative viability (Fedratinib + Olaparib; first compound 0.3162 µM) | relative viability (Fedratinib + Olaparib; first compound 1 µM) |
| --- | --- | --- | --- | --- | --- | --- | --- | --- | --- | --- | --- | --- | --- | --- | --- | --- | --- | --- | --- | --- |
| LXF-289 | 0.999 | 0.859 | 0.857 | 0.731 | 0.358 | 0.391 | 0.407 | 0.368 | 0.796 | 0.792 | 0.791 | 0.81 | 0.79 | 0.804 | 0.89 | 0.872 | 0.884 | 1.11 | 1.01 | 0.994 |
| PC-14 | 1 | 1.08 | 0.671 | 0.817 | 0.191 | 0.198 | 0.236 | 0.221 | 0.746 | 0.88 | 0.633 | 0.926 | 0.874 | 0.92 | 0.124 | 0.132 | 0.131 | 0.371 | 0.324 | 0.309 |
| NCI-H650 | 0.55 | 0.585 | 0.465 | 0.518 | 0.337 | 0.315 | 0.292 | 0.328 | 0.456 | 0.469 | 0.454 |  | 0.682 | 0.668 | 0.866 | 0.887 | 0.835 | 0.367 | 0.372 | 0.379 |
| NCI-H1666 | 0.941 | 1.12 | 0.911 | 0.77 | 0.604 | 0.888 | 0.738 | 0.698 | 0.837 | 0.793 | 0.898 | 1.03 | 0.994 | 0.843 | 0.793 | 0.869 | 0.831 | 0.792 | 0.751 | 0.747 |
| NCI-H2085 | 0.985 | 0.86 | 0.653 | 0.886 | 0.577 | 0.542 | 0.541 | 0.589 | 0.586 | 0.855 | 0.711 | 0.769 | 0.953 | 0.812 | 0.88 | 1.06 | 0.805 | 0.73 | 0.824 | 0.765 |
| NCI-H1734 | 0.617 | 0.65 | 0.582 | 0.537 | 0.522 | 0.457 | 0.539 | 0.55 | 0.607 | 0.588 | 0.536 | 0.629 | 0.692 | 0.629 | 0.442 | 0.435 | 0.356 | 0.683 | 0.618 | 0.505 |
| NCI-H2126 | 0.697 | 0.793 | 0.706 | 0.716 | 0.582 | 0.614 | 0.574 | 0.569 | 0.757 | 0.736 | 0.704 | 1.01 | 0.989 | 0.996 | 0.592 | 0.657 | 0.626 | 0.927 | 0.939 | 0.938 |
| EMC-BAC-2 | 0.364 | 0.384 | 0.364 | 0.337 | 0.977 | 0.961 |  | 0.943 | 0.323 | 0.387 | 0.351 | 0.615 | 0.73 | 0.7 | 0.425 | 0.481 | 0.39 | 0.493 | 0.455 | 0.472 |
